Source: US20020169101A1, “Treatment of sexual dysfunction” (priority 1999, published 2002)
Read-outs that look alike come from different tables or passages of the source.

Legend:
human GRP receptor (BB2) = biological target: T1, human GRP receptor (BB2) (Homo sapiens, UniProt P30550); assay: BB2 binding assay ([125I][Tyr4]bombesin displacement, CHO-K1 membranes)
T1 construct: expressed in transfected cells; membranes prepared from the cells
Procedure: (§1) In the following experiments, measurement of BB1 and BB2 binding was as follows. CHO-K1 cells stably expressing cloned human NMB (for (BB1 assay) and GRP receptors (for BB2 assay) were routinely grown in Ham's F12 culture medium supplemented with 10% foetal calf serum and 2 mM glutamine. For binding experiments, cells were harvested by trypsinization, and stored frozen at −70° C. in Ham's F12 culture medium containing 5% DMSO until required. On the day of use, cells were thawed rapidly, diluted with an excess of culture medium, and centrifuged for 5 minutes at 2000 g. Cells were resuspended in 50 mM Tris-HCl assay buffer (pH 7.4 at 21° C., containing 0.02% BSA, 40 μg/mL bacitracin, 2 μg/mL chymostatin, 4 μg/mL leupeptin, and 2 μM phosphoramidon), counted, and polytronned (setting 5, 10 sec) before centrifuging for 10 minutes at 28,000 g. The final pellet was resuspended in assay buffer to a final cell concentration of 1.5×10^5/mL. For binding assays, […] aliquots of membranes were incubated with [^125I][Tyr^4]bombesin (<0.1 nM) in the presence and absence of test compounds (final assay volume 250 μL) for 60 minutes and 90 minutes for NMB and GRP receptors, respectively. Nonspecific binding was defined by 1 μM bombesin. Assays were terminated by rapid filtration under vacuum onto Whatman GF/C filters presoaked in 0.2% PEI for >2 hours, and washed 50 mM Tris-HCl (pH 6.9 at 21° C.; 6×1 mL). Radioactivity bound was determined using a gamma counter.
(§2) All competition data was analysed using nonlinear regression utilizing iterative curve-plotting procedures in Prism® (GraphPad Software Inc., San Diego, USA). IC50 values were corrected to Ki values using the Cheng-Prusoff equation (Cheng Y., Prusoff W. H., Biochem. Pharmacol. 22: 3099-3108, 1973). obtained are listed in Table 1.

human NMB receptor (BB1) = biological target: T2, human NMB receptor (BB1) (Homo sapiens, UniProt P28336); assay: BB1 binding assay ([125I][Tyr4]bombesin displacement, CHO-K1 membranes)
T2 construct: expressed in transfected cells; membranes prepared from the cells
Procedure: as §1, §2

[1] = binding studies to the bombesin receptors
[2] = Table 3, N-acyl derivatives of Intermediate III-7
[3] = second 'TABLE 4', N-terminal urethane derivatives of Intermediate III-7

T2 sequence (P28336 whole entry): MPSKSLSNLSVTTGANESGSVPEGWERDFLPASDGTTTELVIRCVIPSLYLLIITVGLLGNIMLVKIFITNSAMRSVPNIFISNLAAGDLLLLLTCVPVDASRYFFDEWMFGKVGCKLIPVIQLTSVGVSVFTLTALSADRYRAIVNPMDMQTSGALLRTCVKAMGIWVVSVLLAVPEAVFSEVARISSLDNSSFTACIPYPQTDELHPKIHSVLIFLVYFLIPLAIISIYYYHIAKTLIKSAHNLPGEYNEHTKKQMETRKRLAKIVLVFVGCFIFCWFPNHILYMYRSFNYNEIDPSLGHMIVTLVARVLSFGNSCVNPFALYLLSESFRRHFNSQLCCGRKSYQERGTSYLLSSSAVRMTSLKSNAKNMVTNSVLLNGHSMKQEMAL
T1 sequence (P30550 whole entry): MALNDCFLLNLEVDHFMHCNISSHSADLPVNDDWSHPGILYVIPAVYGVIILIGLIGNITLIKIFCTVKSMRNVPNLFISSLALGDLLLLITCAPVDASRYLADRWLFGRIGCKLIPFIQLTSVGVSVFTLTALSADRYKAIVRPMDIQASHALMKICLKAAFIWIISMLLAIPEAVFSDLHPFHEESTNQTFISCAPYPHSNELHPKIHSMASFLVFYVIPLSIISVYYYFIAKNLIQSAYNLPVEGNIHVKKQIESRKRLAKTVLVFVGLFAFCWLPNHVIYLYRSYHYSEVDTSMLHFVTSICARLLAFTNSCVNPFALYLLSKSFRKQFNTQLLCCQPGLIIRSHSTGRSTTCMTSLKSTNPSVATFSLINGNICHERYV

Compound	IC50 (human GRP receptor (BB2); [2]) [µM]	IC50 (human NMB receptor (BB1); [2]) [µM]	other results
COc1ccc(C2(CNC(=O)[C@](C)(Cc3c[nH]c4ccccc34)NC(=O)c3cc4ccccc4[nH]3)CCCCC2)nc1 [Example 86, 1H-Indole-2-carboxylic Acid ((S)-2-(1H-indol-3-yl)-1-{[1-(5-methoxy-pyridin-2-yl)-cyclohexylmethyl]-carbamoyl}-1-methyl-ethyl)-amide]	–	–	IC50 (human GRP receptor (BB2); [1]): 0.119 µM; IC50 (human NMB receptor (BB1); [1]): 0.011 µM
C[C@@](Cc1c[nH]c2ccccc12)(NC(=O)c1cccc(C#N)c1)C(=O)NCC1(c2ccccn2)CCCCC1 [Example 38, 3-Cyano-N—{(S)-2-(1H-indol-3-yl)-1-methyl-1-[(1-pyridin-2-yl-cyclohexylmethyl)-carbamoyl]-ethyl}-benzamide]	> 10	2.04	–
COc1ccc(C2(CNC(=O)[C@](C)(Cc3ccccc3)Nc3nc(-c4ccc([N+](=O)[O-])cc4)co3)CCCCC2)nc1 [Example 12, (S)-N-[1-(5-Methoxy-pyridin-2-yl)-cyclohexylmethyl]-2-methyl-2-[4-(4-nitro-phenyl)-oxazol-2-ylamino]-3-phenyl-propionamide]	–	–	Ki (human GRP receptor (BB2); Table 1, human GRP receptor binding affinity, Ki from IC50 by Cheng-Prusoff, read-out: GRP Kj): 2.82 µM; Ki (human NMB receptor (BB1); Table 1, human NMB receptor binding affinity, Ki from IC50 by Cheng-Prusoff, read-out: NMB Ki): 0.016 µM
Cc1ccccc1COC(=O)N[C@@](C)(Cc1c[nH]c2ccccc12)C(=O)NCC1(c2ccccn2)CCCCC1 [Example 97, {(S)-2-(1H-Indol-3-yl)-1-methyl-1-[(1-pyridin-2-yl-cyclohexylmethyl)-carbamoyl]-ethyl}-carbamic acid 2-methyl-benzyl ester]	–	–	IC50 (human GRP receptor (BB2); [3]): > 10 µM; IC50 (human NMB receptor (BB1); [3]): 0.751 µM
C[C@@](Cc1c[nH]c2ccccc12)(NC(=O)OCc1cccc2ccccc12)C(=O)NCC1(c2ccccn2)CCCCC1 [Example 87, {(S)-2-(1H-Indol-3-yl)-1-methyl-1-[(1-pyridin-2-yl-cyclohexylmethyl)-carbamoyl]-ethyl}-carbamic acid naphthalen-1-ylmethyl ester]	–	–	IC50 (human GRP receptor (BB2); [3]): > 10 µM; IC50 (human NMB receptor (BB1); [3]): 0.239 µM
C[C@@](Cc1c[nH]c2ccccc12)(NC(=O)c1ccccc1-n1cccc1)C(=O)NCC1(c2ccccn2)CCCCC1 [Example 81, N—{(S)-2-(1H-Indol-3-yl)-1-methyl-1-[(1-pyridin-2-yl-cyclohexylmethyl)-carbamoyl]-ethyl}-2-pyrrol-1-yl-benzamide]	> 10	0.361	–
C[C@@](Cc1c[nH]c2ccccc12)(NC(=O)OCc1ccc(Cl)cc1)C(=O)NCC1(c2ccccn2)CCCCC1 [Example 93, {(S)-2-(1H-Indol-3-yl)-1-methyl-1-[(1-pyridin-2-yl-cyclohexylmethyl)-carbamoyl]-ethyl}-carbamic acid 4-chloro-benzyl ester]	–	–	IC50 (human GRP receptor (BB2); [3]): > 10 µM; IC50 (human NMB receptor (BB1); [3]): 0.681 µM
C[C@@](Cc1c[nH]c2ccccc12)(NC(=O)OCc1cccc(C(F)(F)F)c1)C(=O)NCC1(c2ccccn2)CCCCC1 [Example 107, {(S)-2-(1H-Indol-3-yl)-1-methyl-1-[(1-pyridin-2-yl-cyclohexylmethyl)-carbamoyl]-ethyl}-carbamic acid 3-trifluoromethyl-benzyl ester]	–	–	IC50 (human GRP receptor (BB2); [3]): > 10 µM; IC50 (human NMB receptor (BB1); [3]): 0.182 µM
C[C@@](Cc1c[nH]c2ccccc12)(NC(=O)OC1Cc2ccccc2C1)C(=O)NCC1(c2ccccn2)CCCCC1 [Example 90, {(S)-2-(1H-Indol-3-yl)-1-methyl-1-[(1-pyridin-2-yl-cyclohexylmethyl)-carbamoyl]-ethyl}-carbamic acid indan-2-yl ester]	–	–	IC50 (human GRP receptor (BB2); [3]): > 10 µM; IC50 (human NMB receptor (BB1); [3]): 0.955 µM
Cc1cccc(S(=O)(=O)N[C@@](C)(Cc2c[nH]c3ccccc23)C(=O)NCC2(c3ccccn3)CCCCC2)c1 [Example 131]	–	–	IC50 (human GRP receptor (BB2)): 1.02 µM; IC50 (human NMB receptor (BB1)): 0.393 µM
C[C@@](Cc1c[nH]c2ccccc12)(NC(=O)c1cccc(S(C)(=O)=O)c1)C(=O)NCC1(c2ccccn2)CCCCC1 [Example 41, N—{(S)-2-(1H-Indol-3-yl)-1-methyl-1-[(1-pyridin-2-yl-cyclohexylmethyl)-carbamoyl]-ethyl}-3-methanesulfonyl-benzamide]	> 10	3.05	–
CN(C)c1ccc(CC(=O)N[C@@](C)(Cc2c[nH]c3ccccc23)C(=O)NCC2(c3ccccn3)CCCCC2)cc1 [Example 83, (S)-2-[2-(4-Dimethylamino-phenyl)-ethanoylamino]-3-(1H-indol-3-yl)-2-methyl-N-(1-pyridin-2-yl-cyclohexylmethyl)-propionamide]	> 10	2.71	–
C[C@@](Cc1c[nH]c2ccccc12)(NC(=O)c1ccccc1F)C(=O)NCC1(c2ccccn2)CCCCC1 [Example 49, 2-Fluoro-N—{(S)-2-(1H-indol-3-yl)-1-methyl-1-[(1-pyridin-2-yl-cyclohexylmethyl)-carbamoyl]-ethyl}-benzamide]	> 10	3.95	–
C[C@@](Cc1c[nH]c2ccccc12)(NC(=O)Cc1cccc(O)c1)C(=O)NCC1(c2ccccn2)CCCCC1 [Example 53, (S)-2-[2-(3-Hydroxy-phenyl)-ethanoylamino]-3-(1H-indol-3-yl)-2-methyl-N-(1-pyridin-2-yl-cyclohexylmethyl)-propionamide]	> 10	1.44	–
C[C@@](Cc1c[nH]c2ccccc12)(NC(=O)Cc1ccc(O)cc1)C(=O)NCC1(c2ccccn2)CCCCC1 [Example 52, (S)-2-[2-(4-Hydroxy-phenyl)-ethanoylamino]-3-(1H-indol-3-yl)-2-methyl-N-(1-pyridin-2-yl-cyclohexylmethyl)-propionamide]	> 10	3.13	–
C[C@@](Cc1c[nH]c2ccccc12)(NS(=O)(=O)c1cccc2cccnc12)C(=O)NCC1(c2ccccn2)CCCCC1 [Example 120, (S)-3-(1H-indol-3-yl)-2-methyl-N-(1-pyridin-2-yl-cyclohexylmethyl)-2-(quinoline-8-sulfonylamino)-propionamide]	–	–	IC50 (human GRP receptor (BB2)): > 10 µM; IC50 (human NMB receptor (BB1)): 0.108 µM
C[C@@](Cc1c[nH]c2ccccc12)(NC(=O)c1cc2ccccc2[nH]1)C(=O)NCC1(c2ccccn2)CCCCC1 [Example 61, 1H-Indole-2-carboxylic acid {(S)-2-(1H-indol-3-yl)-1-methyl-1-[(1-pyridin-2-yl-cyclohexylmethyl)-carbamoyl]-ethyl}-amide]	0.527	0.289	–
Cc1ccc(C(=O)N[C@@](C)(Cc2c[nH]c3ccccc23)C(=O)NCC2(c3ccccn3)CCCCC2)s1 [Example 75, 5-Methyl-thiophene-2-carboxylic acid {(S)-2-(1H-indol-3-yl)-1-methyl-1-[(1-pyridin-2-yl-cyclohexylmethyl)-carbamoyl]-ethyl}-amide]	> 10	1.66	–
Cc1ccc(Oc2ccccc2)c(S(=O)(=O)N[C@@](C)(Cc2c[nH]c3ccccc23)C(=O)NCC2(c3ccccn3)CCCCC2)c1 [Example 152, (S)-3-(1H-indol-3-yl)-2-methyl-2-(5-methyl-2-phenoxy-benzenesulfonylamino)-N-(1-pyridin-2-yl-cyclohexylmethyl)-propionamide]	–	–	IC50 (human GRP receptor (BB2)): > 10 µM; IC50 (human NMB receptor (BB1)): 0.076 µM
Cc1cccc(COC(=O)N[C@@](C)(Cc2c[nH]c3ccccc23)C(=O)NCC2(c3ccccn3)CCCCC2)c1 [Example 105, {(S)-2-(1H-Indol-3-yl)-1-methyl-1-[(1-pyridin-2-yl-cyclohexylmethyl)-carbamoyl]-ethyl}-carbamic acid 3-methyl-benzyl ester]	–	–	IC50 (human GRP receptor (BB2); [3]): > 10 µM; IC50 (human NMB receptor (BB1); [3]): 0.841 µM
C[C@@](Cc1c[nH]c2ccccc12)(NC(=O)c1cccc2cc[nH]c12)C(=O)NCC1(c2ccccn2)CCCCC1 [Example 69, 1H-Indole-7-carboxylic acid {(S)-2-(1H-indol-3-yl)-1-methyl-1-[(1-pyridin-2-yl-cyclohexylmethyl)-carbamoyl]-ethyl}-amide]	> 10	1.37	–
COc1ccc(CC(=O)N[C@@](C)(Cc2c[nH]c3ccccc23)C(=O)NCC2(c3ccccn3)CCCCC2)cc1 [Example 82, (S)-3-(1H-Indol-3-yl)-2-[2-(4-methoxy-phenyl)-ethanoylamino]-2-methyl-N-(1-pyridin-2-yl-cyclohexylmethyl)-propionamide]	> 10	1.69	–
C[C@@](Cc1c[nH]c2ccccc12)(NC(=O)c1ccc(Cl)cc1)C(=O)NCC1(c2ccccn2)CCCCC1 [Example 34, 4-Chloro-N—{(S)-2-(1H-indol-3-yl)-1-methyl-1-[(1-pyridin-2-yl-cyclohexyl-methyl)-carbamoyl]-ethyl}-benzamide]	> 10	1.35	–
Cn1c(C(=O)N[C@@](C)(Cc2c[nH]c3ccccc23)C(=O)NCC2(c3ccccn3)CCCCC2)cc2ccccc21 [Example 70, 1-Methyl-1H-indole-2-carboxylic acid {(S)-2-(1H-indol-3-yl)-1-methyl-1-[(1-pyridin-2-yl-cyclohexylmethyl)-carbamoyl]-ethyl}-amide]	> 10	1.23	–
